Source: ChEMBL document CHEMBL3886334, “Fragment ligated inhibitors selective for the polo box domain of PLK1” (2015)

Molecular target: Serine/threonine-protein kinase PLK1 (Homo sapiens, UniProt P53350)
Assay: Fluorescent Polarization Binding Assay: The buffer composition was 50 mM Tris, 200 mM NaCl, 2.0 mM DTT, and 0.005% Tween 20 (pH 8.0). Fragment ligated inhibitors and comparison peptides to be tested in the binding assay were dissolved in dimethyl sulfoxide (DMSO) to a concentration of 10 mM, compounds were utilized in a range of concentrations from 10 nM to 600 μM. The PLK1 PBD protein (residues …

Serine/threonine-protein kinase PLK1, sequence (P53350 whole entry, the tested form may be a part): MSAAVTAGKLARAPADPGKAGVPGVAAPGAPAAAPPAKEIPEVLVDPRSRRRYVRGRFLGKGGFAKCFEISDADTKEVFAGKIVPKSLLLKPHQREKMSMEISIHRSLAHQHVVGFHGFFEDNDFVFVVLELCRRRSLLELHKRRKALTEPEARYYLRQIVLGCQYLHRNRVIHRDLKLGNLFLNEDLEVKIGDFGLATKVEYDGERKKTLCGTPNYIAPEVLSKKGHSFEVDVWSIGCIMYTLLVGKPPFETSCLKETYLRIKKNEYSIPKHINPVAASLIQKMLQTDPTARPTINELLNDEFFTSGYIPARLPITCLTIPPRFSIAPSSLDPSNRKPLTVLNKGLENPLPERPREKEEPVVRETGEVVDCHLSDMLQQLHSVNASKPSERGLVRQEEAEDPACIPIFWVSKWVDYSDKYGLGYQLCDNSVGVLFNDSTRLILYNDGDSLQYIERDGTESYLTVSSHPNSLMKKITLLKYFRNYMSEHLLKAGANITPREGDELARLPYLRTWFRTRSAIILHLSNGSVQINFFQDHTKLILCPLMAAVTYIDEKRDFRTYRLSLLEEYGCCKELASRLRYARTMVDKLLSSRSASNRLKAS

SMILES | IC50
CNC(=O)c1cc(-c2ccccc2)c(C(F)(F)F)s1 | 500 µM
CNC(=O)CSc1ncnc2sc(C)cc12 | 475 µM
CNC(=O)Cn1cc(-c2ccc(C)cc2)ncc1=O | 250 µM
CNC(=O)c1cc(OC)c2c(c1)OCCO2 | 300 µM
CNC(=O)c1cn(S(=O)(=O)c2ccccc2)c2ccccc12 | 375 µM
CNC(=O)CN1C(=O)COc2ccc(C)cc21 | 350 µM
CNC(=O)c1cc(-c2cccc(OC)c2)n[nH]1 | 380 µM
CNC(=O)c1cc(-c2ccccc2)n(-c2ccccc2)c1C | 600 µM
CNC(=O)c1sc(C(F)(F)F)c(-c2ccccc2)c1N | > 600 µM

Now from value to compound:

IC50 | SMILES
18.5 µM | CNC(=O)c1ccc(SC)cc1
16.5 µM | CCc1ccc(C(=O)NC)cc1
16.5 µM | CCCNc1ccc(C(=O)NC)cc1
99 µM | CNC(=O)c1ccc(OC)c2ccccc12
125 µM | CNC(=O)c1ccc(OC)cc1
31.2 µM | CNC(=O)c1ccc(NC)cc1
400 µM | CNC(=O)c1ccc2ncccc2c1
320 µM | CNC(=O)c1ccc(-c2noc(C)n2)cc1
29.5 µM | CCCOc1ccc(C(=O)NC)cc1
104 µM | CNC(=O)c1cccc2ccccc12
10.8 µM | CCCc1ccc(C(=O)NC)cc1
8.6 µM | CCCCc1ccc(C(=O)NC)cc1
64.7 µM | CCOc1ccc(C(=O)NC)cc1
